Test results reported in patent US20110256121A1, “METHODS AND KITS FOR DIAGNOSING OR MONITORING AUTOIMMUNE AND CHRONIC INFLAMMATORY DISEASES” (THE REGENTS OF THE UNIVERSITY OF MICHIGAN, priority 2008, published 2011).

Tests used:
KIR2DL4 [1] = test: Cell stimulation with immobilized anti-KIR2DL4 and IFN-γ quantitation (Example 15); type: cell-based, human; settings: without anti-KIR2DL4 crosslinking, p<0.001
Procedure: Cell stimulation and IFN-γ quantitation. Anti-human KIR2DL4 (R&D systems) or isotype matched control (10 μg/ml in PBS) were added to 24 well plates, incubated 6 hours 37° C., then the wells were washed twice with PBS to remove unbound antibody. 2×10^5 T cells were then added to the coated wells in RPMI 1640 supplemented with 10% FBS and cultured for 20 hours. The supernatant was then recovered and IFN-γ levels measured using a human IFN-γ ELISA kit (R&D Systems).
KIR function in 5-azaC treated T cells. It was determined if 5-azaC induced KIR2DL4 stimulates IFN-γ in T cells. PBMC were stimulated with PHA for 18 hours, treated with 5-azaC, then 72 hours later CD4+ and CD8+ cells were isolated, stimulated for 6 hours with immobilized anti-KIR2DL4 or an isotype matched antibody, then IFN-γ was measured in the supernatant by ELISA.

KIR2DL2 = KIR2DL2 expression on T cells by flow cytometry; type: cell-based, human
Procedure: (§1) T cell purification and culture. Peripheral blood mononuclear cells (PBMC) were isolated from healthy donors by density gradient centrifugation, stimulated for 18 hours with 1 μg/mlphytohemagglutinin (PHA) (Murex, Norcross, Ga.), then treated or not with 5 μm 5-azacytidine (5-azaC, Sigma, St. Louis, Mo.) for 72 hours as described (6). Total T cells, CD4^+ T cells or CD8′ T cells then were purified using the pan T cell isolation kit II or the CD4^+ and CD8^+ T cell isolation kit II from Miltenyi (Auburn, Calif.). T cells were typically >94% CD3^+ by flow cytometry. Jurkat cells (E6-1) were maintained in culture as described (11). This protocol was approved by the University of Michigan Institutional Review Board.
Flow Cytometric Analysis. The following monoclonal antibodies were used: CYC-anti-CD3, FITC-anti-CD8, CYC-anti-CD4, FITC-anti-CD28, CYC-mouse IgG1 and FITC-mouse-IgG1 (all from BD PharMingen, San Diego, Calif.). Anti-CD158b1/b2, j-PE (GL183, reactive with KIR 2DL2/2DL3/2DS2) was obtained from Beckman Coulter Immunotech (Buckinghamshire, UK), anti-CD158d-PE (anti-KIR2DL4) from R&D Systems (Minneapolis, Minn.), and PE-mouse-IgG2A from Abcam (Cambridge Mass.). Cell staining and fixation were performed as described (2; 6), and cells analyzed using a FACSCalibur flow cytometer (BD Biosciences, Franklin Lakes, N.J.).
Confirmation at the protein and mRNA levels. The effect of 5-azaC on KIR2DL2 and KIR2DL4 was confirmed in CD4+ and CD8+ T cells at the protein and mRNA levels. […] 5-azaC induces KIR2DL2 expression on both subsets, but a greater increase is seen on the CD8+ subset. FIG. 25b summarizes the effect of 5-azaC on KIR2DL2 expression in CD4+ and CD8+ T cells from healthy subjects. […] Since KIR is primarily expressed on CD28− T cells (24), KIR2DL2 expression was compared on CD28+ and CD28− T cells with and without 5-azaC treatment. KIR2DL2 expression increased on the CD28+ subset relative to untreated cells (1.9±0.2% vs 0.1±0.1%, 5-azaC treated vs untreated, n=3, p<0.001), but not on the CD28− subset (0.27±0.13% vs 0.30±0.18%, treated vs untreated, n=3).

KIR3DL1 = molecular target: T1, KIR3DL1 (Homo sapiens, UniProt P43629); test: Macrophage killing assay with 5-azaC treated T cells, 51Cr release; type: cell-based; settings: 18 hrs
T1 construct: endogenous in cells; host or cells: primary T cells of healthy donors, PHA-stimulated and 5-azaC treated, with autologous monocytes/macrophages
T1 sequence (P43629 22-444): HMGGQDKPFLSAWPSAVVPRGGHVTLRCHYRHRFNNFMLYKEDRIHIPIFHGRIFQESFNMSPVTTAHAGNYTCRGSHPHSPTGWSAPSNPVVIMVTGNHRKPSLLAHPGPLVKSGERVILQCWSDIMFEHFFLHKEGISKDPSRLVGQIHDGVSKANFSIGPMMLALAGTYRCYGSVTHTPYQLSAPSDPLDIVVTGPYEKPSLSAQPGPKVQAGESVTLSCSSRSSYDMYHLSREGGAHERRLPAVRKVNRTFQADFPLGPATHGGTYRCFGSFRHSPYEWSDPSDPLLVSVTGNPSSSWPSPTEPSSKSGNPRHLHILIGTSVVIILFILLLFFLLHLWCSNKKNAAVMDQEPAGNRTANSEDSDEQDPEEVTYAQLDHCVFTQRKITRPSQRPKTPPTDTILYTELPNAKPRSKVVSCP

KIR2DL4 [2] = test: KIR2DL4 transcripts by real-time quantitative RT-PCR; type: cell-based, human; settings: relative to β-actin, p<0.001 for both
Procedure: as §1
Real-time quantitative RT-PCR. Total RNA was isolated using the RNeasy Mini Kit (QIAGEN, Valencia, Calif.). Primers were designed to match polymorphic positions unique to KIR2DL2 or KIR2DL4 genes as described by Uhrberg et al. (13). Controls included β-actin primers as described (14). Real-time quantitative RT-PCR was performed with a Rotor-Gene 3000 (Corbett Robotics, San Francisco, Calif.) and QuantiTect SYBR Green RT-PCR kit (QIAGEN) according to manufacturer's instructions. cDNA synthesized from T cells was used to generate standard curves for β-actin, KIR2DL2 and KIR2DL4, and each experiment was repeated at least twice.

Nc1ncn([C@@H]2O[C@H](CO)[C@@H](O)[C@H]2O)c(=O)n1 [5-azaC, 5-azacytidine] was tested, and the “IFN-γ secretion by 5-azaC treated CD4+ and CD8+ T cells” value (KIR2DL4 [1]) was “secrete significant (p<0.001) amounts of IFN-γ”, the “KIR2DL2 expression on CD4+ and CD8+ T cells” value (KIR2DL2; 5-azaC 72 h, p<0.001 for each subset) was “increases KIR2DL2 expression on both” and the “CD4 or CD8 expression” value (KIR2DL2; 5-azaC treated T cells) was “no significant effect”. The “KIR2DL2 expression on the CD28+ subset” value (KIR2DL2; 5-azaC treated, untreated 0.1±0.1%, n=3, p<0.001) was 1.9±0.2%, the “KIR2DL2 expression on the CD28− subset” value (KIR2DL2; 5-azaC treated, untreated 0.30±0.18%, n=3) was 0.27±0.13% and the “killing of autologous Mo by demethylated (5-azaC treated) T cells” value (KIR3DL1) was “spontaneously kill autologous Mo”. For the same compound, the “KIR2DL4 mRNA in CD4+ and CD8+ T cells” value (KIR2DL4 [2]) was “increase is significant on both subsets”.
